Read-outs that look alike come from different tables or passages of the source.
Key:
5-HT2A receptor = 5-HT2A receptor (Homo sapiens (Human), UniProt P28223); test: 5-HT2A functional assay, IP1 (IPOne); format: cell-based; settings: for Emax: relative to 5-HT
Protocol: After incubation, cells were lysed and fluorescence acceptor and donor were added. FRET was measured after 60 min at room temperature using a microplate reader (Envision, Perkin Elmer). TRUPATH assays followed a similar workflow, except that different reagents were used, and LiCl was not included in the samples; the protocol was based on the report by Olsen, R. H. J. et al., cited above.

Adenosine A1 (h) = Adenosine A1 (h) (Homo sapiens (Human), UniProt P30542); test: Off-target screen, radioligand displacement at 10 μM; settings: read-out: binding at 10 μM
Sequence of Adenosine A1 (h) (P30542 whole entry, looked up): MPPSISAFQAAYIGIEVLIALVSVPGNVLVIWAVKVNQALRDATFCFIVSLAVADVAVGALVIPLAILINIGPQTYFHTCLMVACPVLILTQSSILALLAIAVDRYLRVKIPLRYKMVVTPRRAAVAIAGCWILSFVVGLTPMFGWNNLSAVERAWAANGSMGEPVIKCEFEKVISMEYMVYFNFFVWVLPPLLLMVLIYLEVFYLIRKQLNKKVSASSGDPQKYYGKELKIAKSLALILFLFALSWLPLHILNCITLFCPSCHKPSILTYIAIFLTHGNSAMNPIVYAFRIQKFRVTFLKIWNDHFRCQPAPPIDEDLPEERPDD

[1] = test system: sigma (non-selective) (h); test: as above; format: binding, human; settings: agonist radioligand
[2] = test system: BZD (central) (rat cortex); test: as above; format: binding
[3] = biological target: PAC1 (Pituitary adenylate cyclase-activating polypeptide, PACAP) (h) (Homo sapiens (Human), UniProt P41586); test: as above; settings: read-out: binding at 10 μM
Sequence of PAC1 (Pituitary adenylate cyclase-activating polypeptide, PACAP) (h) (P41586 whole entry, looked up): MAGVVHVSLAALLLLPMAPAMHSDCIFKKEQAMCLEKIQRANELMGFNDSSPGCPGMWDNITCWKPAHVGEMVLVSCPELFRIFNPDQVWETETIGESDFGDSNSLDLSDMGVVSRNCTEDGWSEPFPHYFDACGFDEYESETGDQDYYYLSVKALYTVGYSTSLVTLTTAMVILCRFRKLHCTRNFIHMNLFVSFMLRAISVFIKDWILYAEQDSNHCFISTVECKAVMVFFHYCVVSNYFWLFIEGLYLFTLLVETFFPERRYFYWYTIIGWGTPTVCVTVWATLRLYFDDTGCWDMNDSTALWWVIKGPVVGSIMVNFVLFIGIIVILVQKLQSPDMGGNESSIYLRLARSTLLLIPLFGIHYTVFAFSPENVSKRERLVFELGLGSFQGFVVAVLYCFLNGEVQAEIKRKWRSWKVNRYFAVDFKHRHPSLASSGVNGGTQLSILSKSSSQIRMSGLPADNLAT

Chemokine CCR1 (h) = Chemokine CCR1 (h) (Homo sapiens (Human), UniProt P32246); test: as above; settings: read-out: binding at 10 μM
Sequence of Chemokine CCR1 (h) (P32246 whole entry, looked up): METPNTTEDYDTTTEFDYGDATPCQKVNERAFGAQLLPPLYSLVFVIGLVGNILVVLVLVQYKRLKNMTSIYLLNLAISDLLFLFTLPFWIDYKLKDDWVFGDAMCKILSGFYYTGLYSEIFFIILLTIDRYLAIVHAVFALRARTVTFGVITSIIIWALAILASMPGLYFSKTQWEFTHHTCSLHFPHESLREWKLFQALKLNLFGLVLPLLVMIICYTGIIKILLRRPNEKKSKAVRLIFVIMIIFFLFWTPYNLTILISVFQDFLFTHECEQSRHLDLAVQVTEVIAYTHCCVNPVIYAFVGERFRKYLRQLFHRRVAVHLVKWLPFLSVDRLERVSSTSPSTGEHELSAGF

[4] = biological target: Prostacyclin IP (PGI2) (h) (Homo sapiens (Human), UniProt P43119); test: as above; settings: read-out: binding at 10 μM
Sequence of Prostacyclin IP (PGI2) (h) (P43119 whole entry, looked up): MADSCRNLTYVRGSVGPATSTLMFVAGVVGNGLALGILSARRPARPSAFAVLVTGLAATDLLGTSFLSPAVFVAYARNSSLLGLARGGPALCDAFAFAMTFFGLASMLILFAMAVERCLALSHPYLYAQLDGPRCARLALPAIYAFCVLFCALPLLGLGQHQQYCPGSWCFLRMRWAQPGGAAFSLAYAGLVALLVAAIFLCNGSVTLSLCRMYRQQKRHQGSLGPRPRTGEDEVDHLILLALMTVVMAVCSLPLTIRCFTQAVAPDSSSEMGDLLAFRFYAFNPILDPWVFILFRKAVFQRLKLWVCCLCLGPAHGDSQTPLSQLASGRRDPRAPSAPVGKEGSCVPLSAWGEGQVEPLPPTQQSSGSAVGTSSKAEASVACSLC

α1 (non-selective) (r) = test: as above; format: binding, rat
Muscarinic M1 (h) = Muscarinic M1 (h) (Homo sapiens (Human), UniProt P11229); test: as above; format: binding; settings: antagonist radioligand
Endothelin ETB (h) = Endothelin ETB (h) (Homo sapiens (Human), UniProt P24530); test: as above; settings: read-out: binding at 10 μM
Muscarinic M5 (h) = Muscarinic M5 (h) (Homo sapiens (Human), UniProt P08912); test: as above; format: binding; settings: antagonist radioligand
[5] = test system: Somatostatin SST (non-selective) (m); test: as above; format: binding, mouse
P2Y (ATP) (rat cortex) = test: as above; format: binding
Neuropeptide Y Y1 (h) = Neuropeptide Y Y1 (h) (Homo sapiens (Human), UniProt P25929); test: as above; settings: read-out: binding at 10 μM
[6] = test system: Calcium SKCa channel (rat cortex); test: as above; format: binding
[7] = test system: Potassium KV channel (rat cortex); test: as above; format: binding
[8] = test system: GABA (non-selective) (rat cortex); test: as above; format: binding
[9] = biological target: norepinephrine transporter (h) (Homo sapiens (Human), UniProt P23975); test: as above; settings: read-out: binding at 10 μM
Muscarinic M2 (h) = Muscarinic M2 (h) (Homo sapiens (Human), UniProt P08172); test: as above; settings: read-out: binding at 10 μM
Sequence of Muscarinic M2 (h) (P08172 whole entry, looked up): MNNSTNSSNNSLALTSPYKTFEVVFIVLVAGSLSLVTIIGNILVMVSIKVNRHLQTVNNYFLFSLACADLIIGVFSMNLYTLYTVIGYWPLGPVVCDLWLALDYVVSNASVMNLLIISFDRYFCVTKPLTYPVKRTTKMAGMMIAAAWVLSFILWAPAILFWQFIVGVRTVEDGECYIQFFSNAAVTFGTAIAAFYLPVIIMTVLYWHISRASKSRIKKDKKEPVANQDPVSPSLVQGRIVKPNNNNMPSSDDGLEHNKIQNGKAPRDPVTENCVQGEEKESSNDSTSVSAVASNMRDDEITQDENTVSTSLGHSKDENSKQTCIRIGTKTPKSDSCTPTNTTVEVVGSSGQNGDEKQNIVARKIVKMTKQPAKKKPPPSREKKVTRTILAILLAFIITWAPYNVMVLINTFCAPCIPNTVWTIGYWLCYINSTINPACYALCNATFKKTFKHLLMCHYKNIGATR

5-HT6 (h) = 5-HT6 (h) (Homo sapiens (Human), UniProt P50406); test: as above; format: binding; settings: agonist radioligand
D4.4 (h) = D4.4 (h) (Homo sapiens (Human), UniProt P21917); test: as above; settings: read-out: binding at 10 μM
Sequence of D4.4 (h) (P21917 whole entry, looked up): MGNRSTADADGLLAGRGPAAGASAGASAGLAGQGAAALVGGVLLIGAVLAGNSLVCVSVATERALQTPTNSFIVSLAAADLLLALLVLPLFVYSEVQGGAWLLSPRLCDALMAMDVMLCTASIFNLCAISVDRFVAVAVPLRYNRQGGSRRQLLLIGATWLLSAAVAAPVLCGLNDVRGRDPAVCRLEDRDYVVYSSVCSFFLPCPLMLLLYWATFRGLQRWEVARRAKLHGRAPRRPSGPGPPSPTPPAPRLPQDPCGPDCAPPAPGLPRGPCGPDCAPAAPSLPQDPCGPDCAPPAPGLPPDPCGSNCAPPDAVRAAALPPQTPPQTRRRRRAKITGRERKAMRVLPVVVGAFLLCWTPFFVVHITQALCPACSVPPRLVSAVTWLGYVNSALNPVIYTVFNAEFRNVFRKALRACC

Melatonin MT1 (h) = Melatonin MT1 (h) (Homo sapiens (Human), UniProt P48039); test: as above; settings: read-out: binding at 10 μM
Galanin GAL1 (h) = Galanin GAL1 (h) (Homo sapiens (Human), UniProt P47211); test: as above; settings: read-out: binding at 10 μM
Muscarinic M3 (h) = Muscarinic M3 (h) (Homo sapiens (Human), UniProt P20309); test: as above; format: binding; settings: antagonist radioligand
Sequence of Muscarinic M3 (h) (P20309 whole entry, looked up): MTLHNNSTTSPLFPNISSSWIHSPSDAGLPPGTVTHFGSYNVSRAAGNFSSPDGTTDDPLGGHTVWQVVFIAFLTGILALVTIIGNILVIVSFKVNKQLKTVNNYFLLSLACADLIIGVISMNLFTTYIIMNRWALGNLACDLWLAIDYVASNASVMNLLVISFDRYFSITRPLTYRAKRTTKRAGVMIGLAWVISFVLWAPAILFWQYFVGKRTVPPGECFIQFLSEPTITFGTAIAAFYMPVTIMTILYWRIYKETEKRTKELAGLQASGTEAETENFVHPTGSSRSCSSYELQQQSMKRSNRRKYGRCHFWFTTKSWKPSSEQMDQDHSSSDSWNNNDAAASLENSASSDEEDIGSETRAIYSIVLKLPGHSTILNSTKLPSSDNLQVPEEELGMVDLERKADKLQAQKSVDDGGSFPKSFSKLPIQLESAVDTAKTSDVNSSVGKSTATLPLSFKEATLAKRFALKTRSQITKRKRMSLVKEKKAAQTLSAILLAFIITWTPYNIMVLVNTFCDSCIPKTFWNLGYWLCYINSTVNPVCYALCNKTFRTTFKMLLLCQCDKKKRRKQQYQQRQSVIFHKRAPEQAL

5-HT3 (h) = 5-HT3 (h) (Homo sapiens (Human), UniProt P46098); test: as above; settings: antagonist, read-out: binding at 10 μM
Glucocorticoid GR (h) = Glucocorticoid GR (h) (Homo sapiens (Human), UniProt P04150); test: as above; settings: read-out: binding at 10 μM
Sequence of Glucocorticoid GR (h) (P04150 whole entry, looked up): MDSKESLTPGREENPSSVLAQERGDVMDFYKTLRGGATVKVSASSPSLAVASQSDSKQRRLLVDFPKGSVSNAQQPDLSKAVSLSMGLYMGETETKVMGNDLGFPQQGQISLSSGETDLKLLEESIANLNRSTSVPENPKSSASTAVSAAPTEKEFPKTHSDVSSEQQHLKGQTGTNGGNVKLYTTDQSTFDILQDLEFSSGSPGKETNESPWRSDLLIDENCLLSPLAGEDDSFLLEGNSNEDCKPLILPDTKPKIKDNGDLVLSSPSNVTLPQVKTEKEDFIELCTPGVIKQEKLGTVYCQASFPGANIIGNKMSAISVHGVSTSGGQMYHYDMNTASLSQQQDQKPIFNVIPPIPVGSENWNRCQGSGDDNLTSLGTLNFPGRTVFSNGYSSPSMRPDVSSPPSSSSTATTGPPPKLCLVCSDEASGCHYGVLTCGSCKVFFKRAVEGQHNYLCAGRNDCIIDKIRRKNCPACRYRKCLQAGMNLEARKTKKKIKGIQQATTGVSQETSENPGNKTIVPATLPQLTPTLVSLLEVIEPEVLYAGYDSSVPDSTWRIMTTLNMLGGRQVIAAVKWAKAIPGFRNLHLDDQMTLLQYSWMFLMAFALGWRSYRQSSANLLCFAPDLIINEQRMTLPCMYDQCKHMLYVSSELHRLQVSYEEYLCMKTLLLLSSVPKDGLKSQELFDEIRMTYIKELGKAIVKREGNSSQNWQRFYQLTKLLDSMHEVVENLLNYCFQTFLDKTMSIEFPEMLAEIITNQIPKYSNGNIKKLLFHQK

5-HT1A (h) = 5-HT1A (h) (Homo sapiens (Human), UniProt P08908); test: as above; format: binding; settings: agonist radioligand
Adrenergic β1 (h) = Adrenergic β1 (h) (Homo sapiens (Human), UniProt P08588); test: as above; settings: read-out: binding at 10 μM
[10] = test system: Chloride Cl— channel (GABA-gated) (rat cortex); test: as above; format: binding
B2 (h) = B2 (h) (Homo sapiens (Human), UniProt P30411); test: as above; settings: read-out: binding at 10 μM
Prostaglandin EP2 (h) = Prostaglandin EP2 (h) (Homo sapiens (Human), UniProt P43116); test: as above; settings: read-out: binding at 10 μM
Sequence of Prostaglandin EP2 (h) (P43116 whole entry, looked up): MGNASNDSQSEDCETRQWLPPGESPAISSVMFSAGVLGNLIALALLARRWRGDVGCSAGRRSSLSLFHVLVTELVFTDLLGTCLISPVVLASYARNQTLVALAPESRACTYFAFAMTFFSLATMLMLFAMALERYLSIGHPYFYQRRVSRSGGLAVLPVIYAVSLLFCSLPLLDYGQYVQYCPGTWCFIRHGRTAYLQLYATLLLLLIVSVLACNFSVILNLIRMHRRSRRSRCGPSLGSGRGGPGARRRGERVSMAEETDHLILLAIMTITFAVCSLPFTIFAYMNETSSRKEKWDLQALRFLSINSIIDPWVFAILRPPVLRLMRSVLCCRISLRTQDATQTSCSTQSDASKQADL

Neurotensin NT1 (h) = Neurotensin NT1 (h) (Homo sapiens (Human), UniProt P30989); test: as above; settings: read-out: binding at 10 μM
D2S (h) = D2S (h) (Homo sapiens (Human), UniProt P14416); test: as above; settings: read-out: binding at 10 μM
Adrenergic β2 (h) = Adrenergic β2 (h) (Homo sapiens (Human), UniProt P07550); test: as above; format: binding; settings: antagonist radioligand
Dopamine D1 (h) = Dopamine D1 (h) (Homo sapiens (Human), UniProt P21728); test: as above; format: binding
Histamine H2 (h) = Histamine H2 (h) (Homo sapiens (Human), UniProt P25021); test: as above; settings: read-out: binding at 10 μM
Sequence of Histamine H2 (h) (P25021 whole entry, looked up): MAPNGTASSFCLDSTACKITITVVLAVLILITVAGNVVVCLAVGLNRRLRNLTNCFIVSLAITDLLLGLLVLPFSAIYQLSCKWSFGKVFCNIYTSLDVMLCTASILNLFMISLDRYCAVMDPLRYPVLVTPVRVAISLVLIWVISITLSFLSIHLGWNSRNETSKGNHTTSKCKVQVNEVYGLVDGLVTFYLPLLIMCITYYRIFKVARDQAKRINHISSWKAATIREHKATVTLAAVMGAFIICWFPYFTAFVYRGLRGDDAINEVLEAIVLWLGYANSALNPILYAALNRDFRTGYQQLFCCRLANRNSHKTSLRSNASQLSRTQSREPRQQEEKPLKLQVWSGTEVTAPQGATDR

Tachykinin NK3 (h) = Tachykinin NK3 (h) (Homo sapiens (Human), UniProt P29371); test: as above; settings: read-out: binding at 10 μM
Sequence of Tachykinin NK3 (h) (P29371 whole entry, looked up): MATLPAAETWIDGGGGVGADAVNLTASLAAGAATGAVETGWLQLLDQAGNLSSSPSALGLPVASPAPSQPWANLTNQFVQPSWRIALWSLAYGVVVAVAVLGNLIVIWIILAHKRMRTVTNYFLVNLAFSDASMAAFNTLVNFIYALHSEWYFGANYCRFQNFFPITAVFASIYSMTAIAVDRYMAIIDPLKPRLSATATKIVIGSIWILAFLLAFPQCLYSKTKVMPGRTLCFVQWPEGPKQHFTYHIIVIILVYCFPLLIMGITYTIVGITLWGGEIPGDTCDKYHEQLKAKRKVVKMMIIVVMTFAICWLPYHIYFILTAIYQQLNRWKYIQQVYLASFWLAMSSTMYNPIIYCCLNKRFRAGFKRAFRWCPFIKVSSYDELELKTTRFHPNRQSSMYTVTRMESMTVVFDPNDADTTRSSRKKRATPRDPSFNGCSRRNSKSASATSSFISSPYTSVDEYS

COc1cc(CC(C)N)c(OC)cc1I (racemic) [DOI, (±)-2,5-dimethoxy-4-iodoamphetamine, reference compound]
Emax (5-HT2A receptor; IP1 assay): ~86% | inhibition at 10 µM (Adenosine A1 (h)): < 50% | inhibition at 10 µM [1]: 61.7% inhibition at 10 μM | binding at 10 μM [2]: NB (inhibited less than 50% of radioligand bound to them, and therefore it can be concluded they do not bind (“no binding,” NB)) | inhibition at 10 µM [3]: < 50% | inhibition at 10 µM (Chemokine CCR1 (h)): < 50% | inhibition at 10 µM [4]: < 50% | binding at 10 μM (α1 (non-selective) (r)): NB (inhibited less than 50% of radioligand bound to them, and therefore it can be concluded they do not bind (“no binding,” NB)) | inhibition at 10 µM (Muscarinic M1 (h)): 71.8% | inhibition at 10 µM (Endothelin ETB (h)): < 50% | inhibition at 10 µM (Muscarinic M5 (h)): 62.6% | binding at 10 μM [5]: NB (inhibited less than 50% of radioligand bound to them, and therefore it can be concluded they do not bind (“no binding,” NB)) | binding at 10 μM (P2Y (ATP) (rat cortex)): NB (inhibited less than 50% of radioligand bound to them, and therefore it can be concluded they do not bind (“no binding,” NB)) | inhibition at 10 µM (Neuropeptide Y Y1 (h)): < 50% | binding at 10 μM [6]: NB (inhibited less than 50% of radioligand bound to them, and therefore it can be concluded they do not bind (“no binding,” NB)) | binding at 10 μM [7]: NB (inhibited less than 50% of radioligand bound to them, and therefore it can be concluded they do not bind (“no binding,” NB)) | binding at 10 μM [8]: NB (inhibited less than 50% of radioligand bound to them, and therefore it can be concluded they do not bind (“no binding,” NB)) | inhibition at 10 µM [9]: < 50% | inhibition at 10 µM (Muscarinic M2 (h)): < 50% | inhibition at 10 µM (5-HT6 (h)): 64.4% | inhibition at 10 µM (D4.4 (h)): < 50% | inhibition at 10 µM (Melatonin MT1 (h)): < 50% | inhibition at 10 µM (Galanin GAL1 (h)): < 50% | inhibition at 10 µM (Muscarinic M3 (h)): 60.4% | inhibition at 10 µM (5-HT3 (h)): < 50% | inhibition at 10 µM (Glucocorticoid GR (h)): < 50% | inhibition at 10 µM (5-HT1A (h)): ≥ 80% | inhibition at 10 µM (Adrenergic β1 (h)): < 50% | Decreased binding [10]: Decreased binding by ~38% | inhibition at 10 µM (B2 (h)): < 50% | inhibition at 10 µM (Prostaglandin EP2 (h)): < 50% | inhibition at 10 µM (Neurotensin NT1 (h)): < 50% | inhibition at 10 µM (D2S (h)): < 50% | inhibition at 10 µM (Adrenergic β2 (h)): ≥ 80% | inhibition at 10 µM (Dopamine D1 (h); read-out: binding at 10 μM): < 50% | inhibition at 10 µM (Histamine H2 (h)): < 50% | inhibition at 10 µM (Tachykinin NK3 (h)): < 50%

COc1cc(SC(F)(F)F)c(OC)cc1CCN [Compound I-1, 2-(2,5-dimethoxy-4-((trifluoromethyl)thio)phenyl)ethan-1-amine]
5-HT2AR agonist activity (in words) (5-HT2A receptor): pronounced agonists | EC50 (5-HT2A receptor): 4.1 nM | activation selectivity for 5-HT2A over 5-HT2B (5-HT2A receptor; EC50, IP1): ~21 fold | 2A/2B EC50 Selectivity (5-HT2A receptor; IP1 assay): 21.5 | Emax (5-HT2A receptor; IP1 assay): ~86% | inhibition at 10 µM (Adenosine A1 (h)): < 50% | inhibition at 10 µM [1]: 64.1% inhibition at 10 μM | binding at 10 μM [2]: NB (inhibited less than 50% of radioligand bound to them, and therefore it can be concluded they do not bind (“no binding,” NB)) | inhibition at 10 µM [3]: < 50% | inhibition at 10 µM (Chemokine CCR1 (h)): < 50% | inhibition at 10 µM [4]: < 50% | binding at 10 μM (α1 (non-selective) (r)): NB (inhibited less than 50% of radioligand bound to them, and therefore it can be concluded they do not bind (“no binding,” NB)) | inhibition at 10 µM (Muscarinic M1 (h)): > 80% | inhibition at 10 µM (Endothelin ETB (h)): < 50% | inhibition at 10 µM (Muscarinic M5 (h)): > 80% | binding at 10 μM [5]: NB (inhibited less than 50% of radioligand bound to them, and therefore it can be concluded they do not bind (“no binding,” NB)) | binding at 10 μM (P2Y (ATP) (rat cortex)): NB (inhibited less than 50% of radioligand bound to them, and therefore it can be concluded they do not bind (“no binding,” NB)) | inhibition at 10 µM (Neuropeptide Y Y1 (h)): < 50% | binding at 10 μM [6]: NB (inhibited less than 50% of radioligand bound to them, and therefore it can be concluded they do not bind (“no binding,” NB)) | binding at 10 μM [7]: NB (inhibited less than 50% of radioligand bound to them, and therefore it can be concluded they do not bind (“no binding,” NB)) | binding at 10 μM [8]: NB (inhibited less than 50% of radioligand bound to them, and therefore it can be concluded they do not bind (“no binding,” NB)) | inhibition at 10 µM [9]: < 50% | inhibition at 10 µM (Muscarinic M2 (h)): < 50% | inhibition at 10 µM (5-HT6 (h)): > 80% | inhibition at 10 µM (D4.4 (h)): < 50% | inhibition at 10 µM (Melatonin MT1 (h)): < 50% | inhibition at 10 µM (Galanin GAL1 (h)): < 50% | inhibition at 10 µM (Muscarinic M3 (h)): 79% | inhibition at 10 µM (5-HT3 (h)): < 50% | inhibition at 10 µM (Glucocorticoid GR (h)): < 50% | inhibition at 10 µM (5-HT1A (h)): > 80% | inhibition at 10 µM (Adrenergic β1 (h)): < 50% | Decreased binding [10]: Decreased binding by ~48% | inhibition at 10 µM (B2 (h)): < 50% | inhibition at 10 µM (Prostaglandin EP2 (h)): < 50% | inhibition at 10 µM (Neurotensin NT1 (h)): < 50% | inhibition at 10 µM (D2S (h)): < 50% | inhibition at 10 µM (Adrenergic β2 (h)): 52.2% | inhibition at 10 µM (Dopamine D1 (h); antagonist radioligand, read-out: inhibition at 10 μM): 57% | inhibition at 10 µM (Histamine H2 (h)): < 50% | inhibition at 10 µM (Tachykinin NK3 (h)): < 50%

— patent US20250236589A1, “THERAPEUTIC PHENETHYLAMINE COMPOSITIONS AND METHODS OF USE” (Cybin IRL Limited, priority 2022, published 2025)
